Experimental data reported in publication PMC4201470, “THDP17 Decreases Ammonia Production through Glutaminase Inhibition. A New Drug for Hepatic Encephalopathy Therapy” (PLoS ONE, 2014).
Entries after “also recorded” stand apart in the source; their conditions may differ. Marks after values point to notes of the source that are not given here.

Tests used:
[1] = target: T1, PAG (Rattus norvegicus, UniProt P13264); experiment: In vitro PAG inhibition by drugs used in HE therapy; format: biochemical; settings: for effect on PAG activity in vitro: 10 mM
T1 sequence (P13264 55-674): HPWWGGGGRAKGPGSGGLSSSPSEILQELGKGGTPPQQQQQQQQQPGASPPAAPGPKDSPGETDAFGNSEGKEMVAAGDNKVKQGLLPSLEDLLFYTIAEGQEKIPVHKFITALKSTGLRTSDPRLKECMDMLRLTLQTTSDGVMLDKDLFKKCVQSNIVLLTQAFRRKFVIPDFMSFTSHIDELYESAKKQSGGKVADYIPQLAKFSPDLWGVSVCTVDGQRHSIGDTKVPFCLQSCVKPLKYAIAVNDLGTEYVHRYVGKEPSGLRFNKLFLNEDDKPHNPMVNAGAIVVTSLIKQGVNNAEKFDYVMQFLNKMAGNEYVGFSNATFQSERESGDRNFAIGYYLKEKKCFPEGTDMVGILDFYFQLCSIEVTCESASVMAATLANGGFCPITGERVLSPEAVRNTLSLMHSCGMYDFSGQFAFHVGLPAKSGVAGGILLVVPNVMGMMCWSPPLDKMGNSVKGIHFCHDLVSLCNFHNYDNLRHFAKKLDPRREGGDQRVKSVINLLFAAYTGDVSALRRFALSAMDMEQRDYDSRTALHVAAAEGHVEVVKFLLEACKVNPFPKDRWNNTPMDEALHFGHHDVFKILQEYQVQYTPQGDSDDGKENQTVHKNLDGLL
Method: (§1) PAG inhibition analysis by different thiourea derivatives (THDP) was assayed in vitro, using the method of Heini for glutaminase activity determination, adapted to a microtiter procedure. This assay is based on the use of o-phthaldialdehyde/mercaptoethanol as a reagent for estimating ammonia released from glutamine. Briefly, 25 µl samples were added to 35 µl of a mixture of 150 mM potassium phosphate, 171 mM glutamine, 1 mM ammonium chloride, pH 8.0 and then incubated at 37°C for 45 min. The reaction was stopped by adding 10 µl 7% trichloroacetic acid, kept on ice for 15 min and centrifuged 5 min at 1000 × g. Aliquots of 5 µl/well were then mixed with 150 µl o-phthalaldehyde/mercaptoethanol reagent (14.4 ml 200 mM potassium phosphate, pH 7.4, 0.8 ml 72 mM mercaptoethanol in ethanol and 0.8 ml 186 mM o-phthaldialdehyde in ethanol). The samples were kept at room temperature in the dark and absorbance measured at 410 nm with a UV-Visible spectrophotometer (BioRad) after 45 min.
PAG activity inhibition was analyzed using 10 mM concentration. PAG activity in vitro was no affected by neomycin, lactitol and lactulose, rather, an increased activity was observed.

[2] = system: glutaminase activity in Caco2 cells; experiment: Glutaminase inhibition by metformin in Caco2 cells; format: cell-based
Method: 6-Diazo-5-oxo-L-norleucine (DON) (0–100 µM) was used as positive control.

[3] = target: T2, glutaminase obtained from both kidney and intestine mitochondria (K-PAG) (Rattus norvegicus, UniProt P13264); experiment: In vitro inhibition screening of glutaminase activity (Heini method, ammonia released from glutamine); format: biochemical
T2 construct: an enriched preparation of glutaminase obtained from both kidney and intestine mitochondria; from tissue; host or cells: rat kidney and intestine mitochondria, solubilised with 1% Triton X-100
T2 sequence (P13264 55-674): T1 sequence (P13264 55-674)
Method: as §1, with “Aliquots of 5 µl/well were then mixed with 150 µl o-phthalaldehyde/mercaptoethanol reagent (14.4 ml 200 mM potassium phosphate, pH 7.4, 0.8 ml 72 mM mercaptoethanol in ethanol and 0.8 ml 186 mM o-phthaldialdehyde in ethanol).” left out
(§2) K-PAG activity was assayed, in presence and absence of the inhibitor; using isolated mitochondria from rat intestine and kidney, solubilized with 1% Triton X-100 as a source of glutaminase. Enzymatic activity was measured using a two-step assay as described by Lund. Protein concentration was determined following Bradford method using serum albumin as standard.
The first group analysed in this work is integrated by a small molecule compounds library derived from thiourea. […]

[4] = system: swine K-PAG (from kidney); experiment: In vitro optimised kinetic assay with increasing inhibitor concentrations; format: biochemical
Method: as §2
First, increasing concentration of inhibitors (ranging from 1 µM to 10 mM) were added to standard and optimized enzymatic assay conditions with 99 mmol/l glutamine, 150 mmol/l phosphate and 100 µg K-PAG (Figure 1).

[5] = system: PAG; experiment: PAG kinetic parameters in absence and presence of THDP-17 (double reciprocal plot); format: biochemical, swine
Method: as §2
Figure 3 THDP17 inhibition kinetics. A lineal double reciprocal plot (1/v against 1/[Gln]) in absence (0) and presence (10 µM) of the inhibitor is shown. […] All experiments were performed in triplicates; p>0.05.

[6] = system: Caco-2 cells; experiment: Cytotoxicity assay in Caco-2 cells after 24 h exposure; format: cell-based; settings: Caco-2, 24 h exposure
Method: Regression analysis of dose-response curves and calculation of IC50 were done according to standard procedure using appropriated software.
Acute toxicity test in animals is typically the first step in the evaluation of the effects of a chemical compound, and its primary purpose is to provide information on potential health hazards that may result from a short-term exposure. […] In the present work, cytotoxicity of a 24 h-exposure to selected inhibitors was evaluated in Caco-2 cells using the MTT method developed by Mosmann and modified by Denizot and Lang.

[7] = system: glutaminase activity (PAG) in Caco-2 cells; experiment: Inhibition assay in cell culture (glutamate produced from glutamine, HPLC); format: cell-based
Source text: Results are shown on Figure 4.

[8] = system: C57BL/6 mice; experiment: Acute toxicity, oral administration to 12 h fasted mice; format: in vivo; settings: for Deaths before 6 h / Deaths before 12 h: oral, N=3
Method: (§3) Lethal dose was determined by oral administration of the compounds to C57BL/6 mice. Thirty mice were supplied by the Centre of Production and Experimental animal of Espartinas, University of Seville, Spain. The animals were housed ten per cage, and maintained at constant room temperature (22°C ±2°C), with artificial light-dark cycle of 12 h and a relative humidity of 65%−70%, and free access to food and water during 2 weeks for acclimation. All animal procedures were performed with approval from the Sevilla University Animal Ethics Committees, under the guidelines of the directive 86/609/CEE of the European Union. Two assays in different conditions were performed. […] They were sacrificed 24 h latter and a macroscopic analysis of the tissues (lungs, heart, liver, stomach and intestine) was performed. […] In this case, mice were sacrificed 24 or 72 h latter and the same macroscopic analysis was performed.
(§4) The undiluted compound has low systemic toxicity but a marked local necrotizing and inflammatory effect when it is administered orally. […] There were few fluctuations in histopathological values but no changes appear to be drug-related or of significance. […] Therefore, we repeat the assay using feed animals.

[9] = system: C57BL/6 mice; experiment: Acute toxicity, oral administration to mice with free access to food and water; format: in vivo; settings: for Deaths before 6 h / Deaths before 12 h / Deaths before 24 h: N=4
Method: as §3, §4

[10] = fed mice, oral, 50 mg/Kg in DMSO
[11] = fed mice, oral, 300 mg/Kg in DMSO

Which “effect on PAG activity in vitro” value [1] does the source give for `OC[C@H]1O[C@@H](O[C@@H]2[C@@H](CO)OC(O)(CO)[C@H]2O)[C@H](O)[C@@H](O)[C@H]1O` (mixture of isomers) [lactulose] here?
Its value is “no affected”.

With `OC[C@@H](O)[C@@H](O[C@@H]1O[C@H](CO)[C@H](O)[C@H](O)[C@H]1O)[C@H](O)[C@@H](O)CO` [lactitol] as the molecule, how does the “effect on PAG activity in vitro” value [1] read?
Its value is “no affected”.

For `CN(C)C(=N)N=C(N)N` [metformin], which inhibition kinetics ([1]; Dixon plot) is on record?
Its inhibition kinetics is “competitive inhibition kinetics”.

What about the inhibition at 10000 µM ([1]; read-out: PAG inhibition) of the same molecule?
Its inhibition at 10000 µM is 17.5%.

And the inhibition at 100000 µM ([1]; read-out: PAG inhibition)?
Its inhibition at 100000 µM is 68%.

What about the “inhibition rates at higher concentrations” value ([2]; Caco2, 50, 100 and 200 mM) of the same molecule?
The value was “did not yield higher inhibition rates”.

What about the inhibition at 20000 µM ([2]; Homo sapiens, Caco-2, 72 h) of the same molecule?
Its inhibition at 20000 µM is 24%.

How did the “inhibition of intestinal glutaminase activity” value ([3]; THDP-17 10 µM) turn out when “N-(3-methyl-3-butenyl)-N′-phenylthiourea [THDP-17]” was run?
The value was 57.4±6.7%.

What about the “inhibition of K-PAG activity (screening result)” value ([3]; thiourea library screening) of the same molecule?
The value was “could inhibit K-PAG activity”.

And the IC50 ([4]; 99 mmol/l glutamine, 150 mmol/l phosphate, 100 µg K-PAG)?
The IC50 was 3.9 ± 0.1 µM.

What about the “extent of PAG inhibition at low milimolar concentrations” value ([4]; low milimolar concentrations, plateau) of the same molecule?
The value was “inhibits PAG activity partially”.

What about the inhibition model ([5]; double reciprocal plot) of the same molecule?
The inhibition model was “not-pure-uncompetitive inhibitor; also recorded: uncompetitive inhibition”.

And the Vmax ([5]; with THDP-17 10 µM)?
The Vmax was 384.62 µmol/min.

And the Vmax-ap ([5]; with THDP-17 10 µM, without inhibitor 0.67 mmol min^-1)?
The Vmax-ap was 0.38 mmol/min.

What about the “cytotoxicity (cell viability)” value [6] of the same molecule?
The value was “did not show cytotoxicity”.

And the “concentration at which PAG inhibition in cell cultures is effective” value ([7]; Caco-2)?
The value was “higher than 5 µM”.

What about the “PAG inhibition in cell cultures” value ([7]; Caco-2, 20 µM) of the same molecule?
The value was 18±2.1%.

And the “PAG inhibition in cell cultures” value ([7]; Caco-2, 100 µM)?
Its value is 46±3.4%.

And the “macroscopic findings in the gastrointestinal tract” value ([8]; also seen with DMSO vehicle alone)?
Its value is “gastrointestinal ulcers and duodenum bleeding”.

And the “histopathological damages in lungs, heart or liver” value ([8]; compared to DMSO alone)?
The value was “No essential or histopathological damages”.

And the “Deaths before 6 h” value ([8]; 50 mg/Kg in DMSO)?
The value was 1.

What about the “Deaths before 12 h” value ([8]; 50 mg/Kg in DMSO) of the same molecule?
The value was 1.

What about the “Deaths before 6 h” value ([8]; 300 mg/Kg in DMSO) of the same molecule?
Its value is 1.

What about the “Deaths before 12 h” value ([8]; 300 mg/Kg in DMSO) of the same molecule?
The value was 1.

What about the “Deaths before 6 h” value ([8]; 2000 mg/Kg in DMSO) of the same molecule?
The value was 2.

And the “Deaths before 12 h” value ([8]; 2000 mg/Kg in DMSO)?
Its value is 1.

What about the “deaths during the experimental period” value ([9]; fed mice) of the same molecule?
Its value is “no deaths were observed”.

And the macroscopic organs analysis ([9]; fed mice sacrificed at 24 and 72 h, less pronounced than in fasted group)?
Its macroscopic organs analysis is “gastrointestinal ulcers and duodenum bleeding”.

What about the “Deaths before 6 h” value [9, 10] of the same molecule?
The value was 0.

What about the “Deaths before 12 h” value [9, 10] of the same molecule?
Its value is 0.

And the “Deaths before 24 h” value [9, 10]?
The value was 0.

And the “Deaths before 12 h” value [9, 11]?
Its value is 0.

What about the “Deaths before 24 h” value [9, 11] of the same molecule?
The value was 0.

And the “Deaths before 6 h” value ([9]; fed mice, oral, 300 mg/Kg in DMSO, animal without water)?
The value was 1 ^*.

What about the “toxicity in vivo (conclusion)” value ([9]; mice, oral) of the same molecule?
The value was “no toxic in vivo”.

With neomycin as the molecule, how does the “effect on PAG activity in vitro” value [1] read?
Its value is “no affected”.
